According to patent publication US8530489B2 (Vertex Pharmaceuticals Incorporated, priority 2006, dated 2013):

How the values were obtained:
Format in all cases: biochemical
PLK1 = PLK1 (Homo sapiens, UniProt P53350); assay: PLK1 Inhibition Assay I (radioactive-phosphate incorporation); conditions: Ki(app); PLK1 Inhibition Assay I or II (table does not say which)
How it was run: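 Ki(app) values came from non-linear regression of initial rates after background subtraction, with phosphopeptide measured by phosphocellulose filter binding and scintillation counting. PLK1 at 2 nM was preincubated with compound (typically from 10 μM, 2-fold dilutions) for 10 min, then run 240 min at 25° C with 350 μM [γ-33P]ATP and 450 μM peptide substrate in HEPES pH 7.5 buffer.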

PLK3 (S38-A340) = target: T1, PLK3 (S38-A340) (Homo sapiens, UniProt Q9H4B4); assay: PLK3 Inhibition Assay (radioactive-phosphate incorporation); conditions: selectivity ratio, PLK3 over PLK1
T1 construct: in the presence of 5 nM PLK3 (S38-A340)
T1 sequence (Q9H4B4 58-340 limits assumed): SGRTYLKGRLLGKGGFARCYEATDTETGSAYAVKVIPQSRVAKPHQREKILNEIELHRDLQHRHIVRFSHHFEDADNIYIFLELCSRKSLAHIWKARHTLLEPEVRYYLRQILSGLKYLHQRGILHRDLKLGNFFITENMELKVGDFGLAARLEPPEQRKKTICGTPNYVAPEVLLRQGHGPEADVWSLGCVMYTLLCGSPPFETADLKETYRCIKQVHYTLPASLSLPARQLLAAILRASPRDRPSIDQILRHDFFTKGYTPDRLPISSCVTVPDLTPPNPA
Protocol: (§1) The compounds of the present invention are evaluated as inhibitors of human PLK kinase using the following assays.
Compounds were screened for their ability to inhibit PLK3 using a radioactive-phosphate incorporation assay. Assays were carried out in a mixture of 25 mM HEPES (pH 7.5), 10 mM MgCl2, and 1 mM DTT. Final substrate concentrations were 75 μM [γ-33P]ATP (60 mCi 33P ATP/mmol ATP, Amersham Pharmacia Biotech/Sigma Chemicals) and 10 μM peptide (SAM68 protein Δ332-443). Assays were carried out at 25° C. in the presence of 5 nM PLK3 (S38-A340). An assay stock buffer solution was prepared containing all of the reagents listed above, with the exception of ATP and the test compound of interest. 30 μL of the stock solution was placed in a 96 well plate followed by addition of 2 μL of DMSO stock containing serial dilutions of the test compound (typically starting from a final concentration of 10 μM with 2-fold serial dilutions) in duplicate (final DMSO concentration 5%). The plate was pre-incubated for 10 minutes at 25° C. and the reaction initiated by addition of 8 μL [γ-33P]ATP (final concentration 75 μM).
The reaction was stopped after 60 minutes by the addition of 100 μL 0.14M phosphoric acid. A multiscreen phosphocellulose filter 96-well plate (Millipore, Cat No. MAPHN0B50) was pretreated with 100 μL 0.2M phosphoric acid prior to the addition of 125 μL of the stopped assay mixture. The plate was washed with 4×200 μL 0.2 M phosphoric acid. After drying, 100 μL Optiphase ‘SuperMix’ liquid scintillation cocktail (Perkin Elmer) was added to the well prior to scintillation counting (1450 Microbeta Liquid Scintillation Counter, Wallac).
(§2) After removing mean background values for all of the data points, Ki(app) data were calculated from non-linear regression analysis of the initial rate data using the Prism software package (GraphPad Prism version 3.0cx for Macintosh, GraphPad Software, San Diego Calif., USA).

PLK2 = PLK2 (Homo sapiens, UniProt Q9NYY3); assay: PLK2 Inhibition Assay (radioactive-phosphate incorporation); conditions: selectivity ratio, PLK2 over PLK1
Sequence of PLK2 (Q9NYY3 whole entry): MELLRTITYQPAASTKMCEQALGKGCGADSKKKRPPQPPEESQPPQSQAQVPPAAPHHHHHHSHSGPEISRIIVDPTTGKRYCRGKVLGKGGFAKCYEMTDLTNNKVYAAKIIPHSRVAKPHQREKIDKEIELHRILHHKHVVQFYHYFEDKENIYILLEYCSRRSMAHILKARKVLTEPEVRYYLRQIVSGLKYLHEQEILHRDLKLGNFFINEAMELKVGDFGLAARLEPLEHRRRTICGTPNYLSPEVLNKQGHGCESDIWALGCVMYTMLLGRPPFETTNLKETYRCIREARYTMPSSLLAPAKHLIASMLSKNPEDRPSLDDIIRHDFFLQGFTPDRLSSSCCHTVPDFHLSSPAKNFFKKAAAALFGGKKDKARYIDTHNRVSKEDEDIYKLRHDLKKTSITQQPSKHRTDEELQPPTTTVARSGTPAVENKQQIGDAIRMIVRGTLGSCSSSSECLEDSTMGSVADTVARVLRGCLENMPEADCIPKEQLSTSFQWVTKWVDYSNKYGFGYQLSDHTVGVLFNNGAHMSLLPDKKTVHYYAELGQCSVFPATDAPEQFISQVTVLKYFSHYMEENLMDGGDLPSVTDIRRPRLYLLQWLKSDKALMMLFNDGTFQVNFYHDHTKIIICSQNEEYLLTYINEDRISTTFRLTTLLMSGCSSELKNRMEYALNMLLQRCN
Protocol: as §1
Compounds were screened for their ability to inhibit PLK2 using a radioactive-phosphate incorporation assay. Assays were carried out in a mixture of 25 mM HEPES (pH 7.5), 10 mM MgCl2, 0.1% BSA, and 2 mM DTT. Final substrate concentrations were 200 μM [γ-33P]ATP (57 mCi 33P ATP/mmol ATP, Amersham Pharmacia Biotech/Sigma Chemicals) and 300 μM peptide (KKKISDELMDATFADQEAK) [SEQ ID:3]. Assays were carried out at 25° C. in the presence of 25 nM PLK2. An assay stock buffer solution was prepared containing all of the reagents listed above, with the exception of ATP and the test compound of interest. 30 μL of the stock solution was placed in a 96 well plate followed by addition of 2 μL of DMSO stock containing serial dilutions of the test compound (typically starting from a final concentration of 10 μM with 2-fold serial dilutions) in duplicate (final DMSO concentration 5%). The plate was pre-incubated for 10 minutes at 25° C. and the reaction initiated by addition of 8 μL [γ-33P]ATP (final concentration 200 μM).
The reaction was stopped after 90 minutes by the addition of 100 μL 0.14 M phosphoric acid. A multiscreen phosphocellulose filter 96-well plate (Millipore, Cat No. MAPHN0B50) was pretreated with 100 μL 0.2M phosphoric acid prior to the addition of 125 μL of the stopped assay mixture. The plate was washed with 4×200 μL 0.2 M phosphoric acid. After drying, 100 μL Optiphase ‘SuperMix’ liquid scintillation cocktail (Perkin Elmer) was added to the well prior to scintillation counting (1450 Microbeta Liquid Scintillation Counter, Wallac).
as §2

Sequence of PLK1 (P53350 whole entry): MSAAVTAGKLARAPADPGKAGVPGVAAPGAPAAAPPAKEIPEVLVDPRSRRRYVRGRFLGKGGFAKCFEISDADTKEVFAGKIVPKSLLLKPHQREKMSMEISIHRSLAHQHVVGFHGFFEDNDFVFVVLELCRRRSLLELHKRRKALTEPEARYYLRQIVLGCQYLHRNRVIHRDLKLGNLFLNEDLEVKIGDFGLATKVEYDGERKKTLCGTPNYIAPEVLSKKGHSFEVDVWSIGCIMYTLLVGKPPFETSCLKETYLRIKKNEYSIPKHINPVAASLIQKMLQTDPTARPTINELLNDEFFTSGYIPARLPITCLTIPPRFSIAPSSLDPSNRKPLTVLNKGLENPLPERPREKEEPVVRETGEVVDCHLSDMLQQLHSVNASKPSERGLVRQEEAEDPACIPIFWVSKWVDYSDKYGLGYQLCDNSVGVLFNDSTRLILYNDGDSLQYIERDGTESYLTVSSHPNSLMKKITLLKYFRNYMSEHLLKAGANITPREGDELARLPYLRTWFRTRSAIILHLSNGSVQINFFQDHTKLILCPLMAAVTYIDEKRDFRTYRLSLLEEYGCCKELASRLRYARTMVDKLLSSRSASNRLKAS

For `CC(Nc1ncc(C#N)c(-c2c[nH]c3ncc(C(F)(F)F)cc23)n1)c1ccc(N[C@H]2CCNC2)nc1` (stereo partly drawn) [Compound I-277, 2-(1-(6-((S)-pyrrolidin-3-ylamino)pyridin-3-yl)ethylamino)-4-(5-(trifluoromethyl)-1H-pyrrolo[2,3-b]pyridin-3-yl)pyrimidine-5-carbonitrile], the Ki (PLK1) was under 3 nM and the “Ki(PLK3)/Ki(PLK1)” value (PLK3 (S38-A340)) was 39.
`CC(Nc1ncc(C#N)c(-c2c[nH]c3ncc(C(F)(F)F)cc23)n1)c1ccc(N2CCCN(C)CC2)cc1` (stereo not shown) [Compound I-126, 2-(1-(4-(4-methyl-1,4-diazepan-1-yl)phenyl)ethylamino)-4-(5-(trifluoromethyl)-1H-pyrrolo[2,3-b]pyridin-3-yl)pyrimidine-5-carbonitrile] was tested, and the Ki (PLK1) was under 3 nM, the “Ki(PLK2)/Ki(PLK1)” value (PLK2) was 211 and the “Ki(PLK3)/Ki(PLK1)” value (PLK3 (S38-A340)) was 126.
For `C[C@@H](Nc1ncc(C#N)c(-c2c[nH]c3ncc(C(F)(F)F)cc23)n1)c1ccc(N2CCN(C)CC2)cc1` [Compound I-127, 2-((R)-1-(4-(4-methylpiperazin-1-yl)phenyl)ethylamino)-4-(5-(trifluoromethyl)-1H-pyrrolo[2,3-b]pyridin-3-yl)pyrimidine-5-carbonitrile], the Ki (PLK1) was under 3 nM, the “Ki(PLK2)/Ki(PLK1)” value (PLK2) was 210 and the “Ki(PLK3)/Ki(PLK1)” value (PLK3 (S38-A340)) was 140.
With `C[C@H](Nc1ncc(C#N)c(-c2c[nH]c3ncc(C(F)(F)F)cc23)n1)c1ccc(N2CCN(C)CC2)nc1` [Compound I-148] the Ki (PLK1) was 3 to 40 nM, the “Ki(PLK2)/Ki(PLK1)” value (PLK2) was 63 and the “Ki(PLK3)/Ki(PLK1)” value (PLK3 (S38-A340)) was 70.
`C[C@@H](Nc1ncc(C#N)c(-c2c[nH]c3ncc(C(F)(F)F)cc23)n1)c1ccc(N2CCN(C)CC2)cc1F` [Compound I-149, 2-((R)-1-(2-fluoro-4-(4-methylpiperazin-1-yl)phenyl)ethylamino)-4-(5-(trifluoromethyl)-1H-pyrrolo[2,3-b]pyridin-3-yl)pyrimidine-5-carbonitrile] was tested, and the Ki (PLK1) was under 3 nM, the “Ki(PLK2)/Ki(PLK1)” value (PLK2) was under 130 and the “Ki(PLK3)/Ki(PLK1)” value (PLK3 (S38-A340)) was under 100.
`C[C@@H]1CN(c2ccc([C@@H](C)Nc3ncc(C#N)c(-c4c[nH]c5ncc(C(F)(F)F)cc45)n3)cn2)C[C@H](C)N1` [Compound I-276, 2-((R)-1-(6-((3S,5R)-3,5-dimethylpiperazin-1-yl)pyridin-3-yl)ethylamino)-4-(5-(trifluoromethyl)-1H-pyrrolo[2,3-b]pyridin-3-yl)pyrimidine-5-carbonitrile] was tested, and the Ki (PLK1) was under 3 nM and the “Ki(PLK2)/Ki(PLK1)” value (PLK2) was 2952.
For `C[C@H]1CN(c2ccc([C@@H](C)Nc3ncc(C#N)c(-c4c[nH]c5ncc(C(F)(F)F)cc45)n3)cn2)CCN1` [Compound I-273, 2-((R)-1-(6-((S)-3-methylpiperazin-1-yl)pyridin-3-yl)ethylamino)-4-(5-(trifluoromethyl)-1H-pyrrolo[2,3-b]pyridin-3-yl)pyrimidine-5-carbonitrile], the Ki (PLK1) was under 3 nM, the “Ki(PLK2)/Ki(PLK1)” value (PLK2) was 1813 and the “Ki(PLK3)/Ki(PLK1)” value (PLK3 (S38-A340)) was 581.
`CC(Nc1ncc(C#N)c(-c2c[nH]c3ncc(C(F)(F)F)cc23)n1)c1ccc(N2CCN(C)CC2)cc1` (stereo not shown) [Compound I-102, 2-(1-(4-(4-methylpiperazin-1-yl)phenyl)ethylamino)-4-(5-(trifluoromethyl)-1H-pyrrolo[2,3-b]pyridin-3-yl)pyrimidine-5-carbonitrile] was tested, and the Ki (PLK1) was under 3 nM, the “Ki(PLK2)/Ki(PLK1)” value (PLK2) was 113 and the “Ki(PLK3)/Ki(PLK1)” value (PLK3 (S38-A340)) was 28.
For `CNCCN(C)c1ccc([C@@H](C)Nc2ncc(C#N)c(-c3c[nH]c4ncc(C(F)(F)F)cc34)n2)cn1` [Compound I-275, 2-((R)-1-(6-(methyl(2-(methylamino)ethyl)amino)pyridin-3-yl)ethylamino)-4-(5-(trifluoromethyl)-1H-pyrrolo[2,3-b]pyridin-3-yl)pyrimidine-5-carbonitrile], the Ki (PLK1) was under 3 nM, the “Ki(PLK2)/Ki(PLK1)” value (PLK2) was 313 and the “Ki(PLK3)/Ki(PLK1)” value (PLK3 (S38-A340)) was 919.
In the case of `CC(Nc1ncc(C#N)c(-c2c[nH]c3ncc(C(F)(F)F)cc23)n1)c1ccc(N2CCN(C)CC2)nc1` (stereo not shown) [Compound I-139, 2-(1-(6-(4-methylpiperazin-1-yl)pyridin-3-yl)ethylamino)-4-(5-(trifluoromethyl)-1H-pyrrolo[2,3-b]pyridin-3-yl)pyrimidine-5-carbonitrile], the Ki (PLK1) is reported as under 3 nM, the “Ki(PLK2)/Ki(PLK1)” value (PLK2) is reported as 1000 and the “Ki(PLK3)/Ki(PLK1)” value (PLK3 (S38-A340)) is reported as 456.
For `CC(Nc1ncc(C#N)c(-c2c[nH]c3ncc(C(F)(F)F)cc23)n1)c1ccc(N2CCNCC2)nc1` (stereo not shown) [Compound I-167, 2-(1-(6-(piperazin-1-yl)pyridin-3-yl)ethylamino)-4-(5-(trifluoromethyl)-1H-pyrrolo[2,3-b]pyridin-3-yl)pyrimidine-5-carbonitrile], the Ki (PLK1) was under 3 nM, the “Ki(PLK2)/Ki(PLK1)” value (PLK2) was 914 and the “Ki(PLK3)/Ki(PLK1)” value (PLK3 (S38-A340)) was 586.
`CC(Nc1ncc(C#N)c(-c2c[nH]c3ncc(C(F)(F)F)cc23)n1)c1ccc(N[C@@H]2CCNC2)nc1` (stereo partly drawn) [Compound I-272, 2-(1-(6-((R)-pyrrolidin-3-ylamino)pyridin-3-yl)ethylamino)-4-(5-(trifluoromethyl)-1H-pyrrolo[2,3-b]pyridin-3-yl)pyrimidine-5-carbonitrile] was tested, and the Ki (PLK1) was under 3 nM, the “Ki(PLK2)/Ki(PLK1)” value (PLK2) was 67 and the “Ki(PLK3)/Ki(PLK1)” value (PLK3 (S38-A340)) was 14.
For `CC(Nc1ncc(C#N)c(-c2c[nH]c3ncc(C(F)(F)F)cc23)n1)c1ccc(N2CCNCC2)cc1` (stereo not shown) [Compound I-124, 2-(1-(4-(piperazin-1-yl)phenyl)ethylamino)-4-(5-(trifluoromethyl)-1H-pyrrolo[2,3-b]pyridin-3-yl)pyrimidine-5-carbonitrile], the Ki (PLK1) was under 3 nM, the “Ki(PLK2)/Ki(PLK1)” value (PLK2) was 323 and the “Ki(PLK3)/Ki(PLK1)” value (PLK3 (S38-A340)) was 185.
With `C[C@@H](Nc1ncc(C#N)c(-c2c[nH]c3ncc(C(F)(F)F)cc23)n1)c1ccc(N2CCN(C)CC2)c(F)c1` [Compound I-142, 2-((R)-1-(3-fluoro-4-(4-methylpiperazin-1-yl)phenyl)ethylamino)-4-(5-(trifluoromethyl)-1H-pyrrolo[2,3-b]pyridin-3-yl)pyrimidine-5-carbonitrile] the Ki (PLK1) was under 3 nM, the “Ki(PLK2)/Ki(PLK1)” value (PLK2) was under 30 and the “Ki(PLK3)/Ki(PLK1)” value (PLK3 (S38-A340)) was under 23.
With `CNCCNc1ccc(C(C)Nc2ncc(C#N)c(-c3c[nH]c4ncc(C(F)(F)F)cc34)n2)cn1` (stereo not shown) [Compound I-278, 2-(1-(6-(2-(methylamino)ethylamino)pyridin-3-yl)ethylamino)-4-(5-(trifluoromethyl)-1H-pyrrolo[2,3-b]pyridin-3-yl)pyrimidine-5-carbonitrile] the Ki (PLK1) was under 3 nM, the “Ki(PLK2)/Ki(PLK1)” value (PLK2) was 208 and the “Ki(PLK3)/Ki(PLK1)” value (PLK3 (S38-A340)) was 142.
`C[C@@H](Nc1ncc(C#N)c(-c2c[nH]c3ncc(C(F)(F)F)cc23)n1)c1ccc(N2CCN(C)CC2)nc1` (single isomer, unassigned) [Compound I-147] was tested, and the Ki (PLK1) was under 3 nM, the “Ki(PLK2)/Ki(PLK1)” value (PLK2) was 523 and the “Ki(PLK3)/Ki(PLK1)” value (PLK3 (S38-A340)) was 186.
